Calls of active or inactive are those of the source. The calls are words filed in the database; no cut-off is given here.
Legend:
[1] = target: T1, High affinity nerve growth factor receptor (Homo sapiens, UniProt P04629); experiment: (§1) Inhibition of receptor Tyrosine kinase A, TrkA (nerve growth factor receptor)
Target sequence in this assay (P04629 whole entry): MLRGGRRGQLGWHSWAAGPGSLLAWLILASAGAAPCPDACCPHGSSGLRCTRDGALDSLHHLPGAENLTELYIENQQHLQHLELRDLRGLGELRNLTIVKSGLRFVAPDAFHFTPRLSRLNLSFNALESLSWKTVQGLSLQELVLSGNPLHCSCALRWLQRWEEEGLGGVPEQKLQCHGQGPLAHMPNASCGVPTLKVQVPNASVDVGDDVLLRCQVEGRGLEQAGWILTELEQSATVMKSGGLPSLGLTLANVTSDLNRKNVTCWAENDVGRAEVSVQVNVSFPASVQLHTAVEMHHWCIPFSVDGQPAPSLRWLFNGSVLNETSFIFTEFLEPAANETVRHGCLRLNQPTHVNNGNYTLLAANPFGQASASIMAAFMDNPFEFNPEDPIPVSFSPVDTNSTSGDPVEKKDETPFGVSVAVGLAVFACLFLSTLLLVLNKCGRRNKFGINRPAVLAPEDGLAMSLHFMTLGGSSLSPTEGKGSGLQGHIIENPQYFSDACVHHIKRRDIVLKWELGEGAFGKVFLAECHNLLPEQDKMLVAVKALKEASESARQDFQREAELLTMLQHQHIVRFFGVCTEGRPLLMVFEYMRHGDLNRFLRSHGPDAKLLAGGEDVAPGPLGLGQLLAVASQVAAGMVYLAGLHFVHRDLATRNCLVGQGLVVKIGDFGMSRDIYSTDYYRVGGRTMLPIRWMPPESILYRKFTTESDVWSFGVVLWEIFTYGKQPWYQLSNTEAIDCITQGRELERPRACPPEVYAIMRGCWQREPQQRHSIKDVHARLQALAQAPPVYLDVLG

[2] = target: Cyclin-dependent kinase 2/cyclin A (Homo sapiens, UniProt P24941); experiment: Inhibition of Cyclin-dependent kinase 2 cyclin A; type: protein-complex assay
[3] = target: RAF proto-oncogene serine/threonine-protein kinase (Homo sapiens, UniProt P04049); experiment: Inhibition of c-Raf1 kinase
[4] = target: T1, High affinity nerve growth factor receptor; experiment: as §1; remark: listed apart in the source
Target sequence in this assay (P04629 33-796 limits assumed): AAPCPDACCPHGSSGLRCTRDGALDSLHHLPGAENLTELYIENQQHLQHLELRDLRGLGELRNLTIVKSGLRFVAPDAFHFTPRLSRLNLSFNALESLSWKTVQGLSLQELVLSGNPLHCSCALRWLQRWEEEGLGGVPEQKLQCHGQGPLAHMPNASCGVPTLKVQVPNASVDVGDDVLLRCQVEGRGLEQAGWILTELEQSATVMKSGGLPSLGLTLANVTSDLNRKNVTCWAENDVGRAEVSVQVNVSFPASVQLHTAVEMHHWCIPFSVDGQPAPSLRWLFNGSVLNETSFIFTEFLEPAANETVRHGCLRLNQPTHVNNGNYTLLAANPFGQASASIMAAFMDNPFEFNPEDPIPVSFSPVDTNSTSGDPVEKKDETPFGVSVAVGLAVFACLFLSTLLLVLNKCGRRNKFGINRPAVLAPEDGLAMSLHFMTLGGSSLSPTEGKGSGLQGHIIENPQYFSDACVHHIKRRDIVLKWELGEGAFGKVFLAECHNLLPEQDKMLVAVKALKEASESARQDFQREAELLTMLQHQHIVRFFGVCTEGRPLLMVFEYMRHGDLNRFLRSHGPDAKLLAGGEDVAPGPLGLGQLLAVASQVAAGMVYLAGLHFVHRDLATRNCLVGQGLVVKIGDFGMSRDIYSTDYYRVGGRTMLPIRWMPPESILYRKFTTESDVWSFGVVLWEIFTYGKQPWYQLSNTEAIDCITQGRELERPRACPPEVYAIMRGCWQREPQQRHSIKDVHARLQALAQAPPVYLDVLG

[5] = Inhibition prostate cancer growth in 10 diverse animal models; type: functional, tissue-based; conditions: Prostate gland

Chain of RAF proto-oncogene serine/threonine-protein kinase (P04049 whole entry): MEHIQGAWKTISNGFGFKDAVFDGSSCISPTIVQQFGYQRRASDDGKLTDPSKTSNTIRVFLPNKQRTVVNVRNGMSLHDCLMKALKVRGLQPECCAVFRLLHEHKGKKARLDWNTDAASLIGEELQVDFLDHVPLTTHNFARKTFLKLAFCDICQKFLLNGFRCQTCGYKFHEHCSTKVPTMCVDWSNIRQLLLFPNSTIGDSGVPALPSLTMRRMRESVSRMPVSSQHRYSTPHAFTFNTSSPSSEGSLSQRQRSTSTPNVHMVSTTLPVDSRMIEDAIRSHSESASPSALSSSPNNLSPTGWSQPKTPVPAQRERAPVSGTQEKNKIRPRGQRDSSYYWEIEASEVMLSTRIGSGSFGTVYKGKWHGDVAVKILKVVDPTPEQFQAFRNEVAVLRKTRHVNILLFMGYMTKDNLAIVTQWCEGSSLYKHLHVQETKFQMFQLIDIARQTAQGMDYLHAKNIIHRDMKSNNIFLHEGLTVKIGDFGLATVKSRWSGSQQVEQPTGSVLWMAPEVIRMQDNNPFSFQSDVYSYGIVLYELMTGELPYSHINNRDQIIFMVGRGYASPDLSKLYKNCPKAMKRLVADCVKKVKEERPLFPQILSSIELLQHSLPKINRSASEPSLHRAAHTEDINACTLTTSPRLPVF

Row | SMILES | IC50 [1] | IC50 [2] | IC50 [3] | Activity [4] | Activity [5]
1 | O=C1Nc2ccc3ncsc3c2/C1=C/Nc1ccc(S(=O)(=O)Nc2ccccn2)cc1 | 0.009 µM | – | – | – | –
2 | Cn1cc(/C=C2\C(=O)Nc3ncccc32)c2ccccc21 | 0.012 µM | > 6 µM | 7.2 µM | – | –
3 | O=C1Nc2ccccc2/C1=C1\CCc2cc(O)ccc21 | 0.006 µM | 8 µM | > 10 µM | – | –
4 | Cn1cc(/C=C2\C(=O)Nc3cccnc32)c2ccccc21 | – | – | > 12 µM | – | –
5 | O=C1Nc2ncc(Br)cc2/C1=C/c1cccc(Oc2ccccc2)c1 | 0.061 µM | > 50 µM | > 50 µM | – | –
6 | C[C@]12O[C@H](C[C@]1(O)CO)n1c3ccccc3c3c4c(c5c6ccccc6n2c5c31)CNC4=O | – | – | – | Active | Active
7 | NS(=O)(=O)c1cccc(N/C=C2\C(=O)Nc3ccccc32)c1 [GW275616X] | 0.063 µM | > 10 µM | > 10 µM | – | –
8 | CS(=O)(=O)Nc1ccc(N/C=C2\C(=O)Nc3ccccc32)cc1 [GW278681X] | 0.006 µM | 8 µM | > 10 µM | – | –
9 | O=C1Nc2ccccc2/C1=C/Nc1ccc2[nH]c(=O)[nH]c2c1 [GW284408X] | 0.007 µM | 2.5 µM | > 10 µM | – | –
10 | O=C1Nc2ccccc2/C1=C/Nc1ccc(-n2cncn2)cc1 [GW301789X] | 0.008 µM | 7.2 µM | > 10 µM | – | –
11 | O=C1Nc2ccc(I)cc2C1=Cc1cc(Br)c(O)c(Br)c1 [GW305074X] | 4.7 µM | – | – | – | –
12 | COc1ccccc1-c1cc(/C=C2\C(=O)Nc3ncc(Br)cc32)cc(Br)c1O [GW442130X] | 0.008 µM | 10.4 µM | 0.7 µM | – | –

Reference: ChEMBL document CHEMBL1147447, “Discovery and in vitro evaluation of potent TrkA kinase inhibitors: oxindole and aza-oxindoles” (Bioorg Med Chem Lett, 2004)
